Test results from PubChem BioAssay AID248 (DTP/NCI, 2004).
Values joined by “and” are separate entries in the source; they are usually repeats but may differ in a detail not shown here. Identical values can stand only once. Toxic doses and inconclusive results are not listed. Cut-off read from the data, not from the text of the source: active = T/C of 150% or more; inactive = T/C below 125%.

System: L1210 leukemia ip in BDF1 mice, survival T/C
Assay: NCI In Vivo Anticancer Drug Screen. Data for tumor model L1210 Leukemia (intraperitoneal) in B6D2F1 (BDF1) mice
Details: endpoint: mean survival time, higher = longer survival
How it was run: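 Mice bearing the transplanted tumor received compound or vehicle. Survival of the treated group was divided by that of the vehicle-treated control group to give the ratio.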

[1] = dose: 100.0 mg/kg/injection, schedule: Q04DX003 (ip), vehicle: saline
[2] = dose: 100.0 mg/kg/injection, schedule: Q01DX009 (ip), vehicle: Klucel (hydroxypropylcellulose) (HPC)
[3] = dose: 100.0 mg/kg/injection, schedule: Q04DX003 (ip), vehicle: Klucel (hydroxypropylcellulose) (HPC)
[4] = dose: 200.0 mg/kg/injection, schedule: Q01DX009 (ip), vehicle: Klucel (hydroxypropylcellulose) (HPC)
[5] = dose: 200.0 mg/kg/injection, schedule: Q04DX003 (ip), vehicle: Klucel (hydroxypropylcellulose) (HPC)
[6] = dose: 400.0 mg/kg/injection, schedule: Q01DX009 (ip), vehicle: Klucel (hydroxypropylcellulose) (HPC)
[7] = dose: 100.0 mg/kg/injection, schedule: Q01DX001 (ip), vehicle: other
[8] = dose: 200.0 mg/kg/injection, schedule: Q01DX001 (ip), vehicle: other
[9] = dose: 400.0 mg/kg/injection, schedule: Q01DX001 (ip), vehicle: other
[10] = dose: 75.0 mg/kg/injection, schedule: Q01DX001 (ip), vehicle: saline
[11] = dose: 150.0 mg/kg/injection, schedule: Q01DX001 (ip), vehicle: saline
[12] = dose: 100.0 mg/kg/injection, schedule: Q01DX009 (ip), vehicle: saline with Tween-80
[13] = dose: 200.0 mg/kg/injection, schedule: Q01DX009 (ip), vehicle: saline with Tween-80
[14] = dose: 400.0 mg/kg/injection, schedule: Q01DX009 (ip), vehicle: saline with Tween-80
[15] = dose: 100.0 mg/kg/injection, schedule: Q04DX003 (ip), vehicle: saline with Tween-80
[16] = dose: 200.0 mg/kg/injection, schedule: Q04DX003 (ip), vehicle: saline with Tween-80

Measured: T/C

O=C(CCN1CC1)OCCOC(=O)CCN1CC1
inactive: dose: 7.1 mg/kg/injection, schedule: Q01DX Z (ip), vehicle: methylcellulose (MC) 97 % of control | dose: 7.2 mg/kg/injection, schedule: Q01DX005 (ip), vehicle: saline 121 % of control | dose: 10.6 mg/kg/injection, schedule: Q01DX Z (ip), vehicle: methylcellulose (MC) 113 % of control | dose: 12.5 mg/kg/injection, schedule: Q04DX003 (ip), vehicle: acetone 109 % of control | dose: 16.0 mg/kg/injection, schedule: Q01DX Z (ip), vehicle: methylcellulose (MC) 113 % of control and 120 % of control | dose: 16.5 mg/kg/injection, schedule: Q04DX003 (ip), vehicle: acetone 101 % of control | dose: 16.5 mg/kg/injection, schedule: Q04DX003 (ip), vehicle: saline 110 % of control | dose: 22.0 mg/kg/injection, schedule: Q01DX001 (ip), vehicle: saline 122 % of control | dose: 24.0 mg/kg/injection, schedule: Q01DX Z (ip), vehicle: methylcellulose (MC) 98 % of control and 103 % of control | dose: 25.0 mg/kg/injection, schedule: Q04DX003 (ip), vehicle: acetone 103 % of control | dose: 37.5 mg/kg/injection, schedule: Q04DX003 (ip), vehicle: acetone 106 % of control | dose: 37.5 mg/kg/injection, schedule: Q04DX003 (ip), vehicle: saline 105 % of control | dose: 50.0 mg/kg/injection, schedule: Q04DX003 (ip), vehicle: acetone 124 % of control
active: dose: 25.0 mg/kg/injection, schedule: Q01DX009 (ip), vehicle: acetone 150 % of control | dose: 37.5 mg/kg/injection, schedule: Q01DX009 (ip), vehicle: acetone 160 % of control | dose: 55.0 mg/kg/injection, schedule: Q01DX005 (ip), vehicle: saline 155 % of control

CCC(SC(C)=O)C(=O)O (configuration not stated)
inactive: dose: 50.0 mg/kg/injection, schedule: Q01DX009 (ip), vehicle: saline 96 % of control | dose: 100.0 mg/kg/injection, schedule: Q01DX009 (ip), vehicle: saline 91 % of control | [1] 89 % of control | dose: 200.0 mg/kg/injection, schedule: Q01DX009 (ip), vehicle: saline 91 % of control | dose: 200.0 mg/kg/injection, schedule: Q04DX003 (ip), vehicle: saline 96 % of control

COC(=O)C(CSCc1ccccc1)NC(=O)OCc1ccccc1 (configuration not stated)
inactive: [2] 96 % of control | [3] 90 % of control | [4] 94 % of control | [5] 87 % of control | [6] 94 % of control

CN(C)C1c2cc(Cl)ccc2-c2c(N)cc(Cl)cc21 (configuration not stated)
inactive: dose: 50.0 mg/kg/injection, schedule: Q01DX001 (ip), vehicle: carboxymethylcellulose (CMC) 95 % of control | dose: 100.0 mg/kg/injection, schedule: Q01DX001 (ip), vehicle: carboxymethylcellulose (CMC) 98 % of control | dose: 200.0 mg/kg/injection, schedule: Q01DX001 (ip), vehicle: carboxymethylcellulose (CMC) 98 % of control | dose: 400.0 mg/kg/injection, schedule: Q01DX001 (ip), vehicle: carboxymethylcellulose (CMC) 93 % of control

O=[N+]([O-])/C=C/c1ccc2ccccc2c1
inactive: dose: 12.5 mg/kg/injection, schedule: Q01DX009 (ip), vehicle: carboxymethylcellulose (CMC) 104 % of control | dose: 25.0 mg/kg/injection, schedule: Q01DX009 (ip), vehicle: carboxymethylcellulose (CMC) 101 % of control | dose: 50.0 mg/kg/injection, schedule: Q01DX009 (ip), vehicle: Klucel (hydroxypropylcellulose) (HPC) 107 % of control | dose: 50.0 mg/kg/injection, schedule: Q01DX009 (ip), vehicle: carboxymethylcellulose (CMC) 100 % of control | [7] 100 % of control | [2] 104 % of control | dose: 100.0 mg/kg/injection, schedule: Q01DX009 (ip), vehicle: carboxymethylcellulose (CMC) 101 % of control | [8] 91 % of control | [4] 93 % of control | [9] 96 % of control

CCCCCCCCCCCCO
inactive: [2] 88 % of control | [4] 96 % of control

COC(=S)SCN(CSC(=S)OC)c1ccccc1Cl
inactive: dose: 50.0 mg/kg/injection, schedule: Q01DX001 (ip), vehicle: Klucel (hydroxypropylcellulose) (HPC) 111 % of control | dose: 100.0 mg/kg/injection, schedule: Q01DX001 (ip), vehicle: Klucel (hydroxypropylcellulose) (HPC) 101 % of control | [2] 109 % of control | [3] 103 % of control | dose: 200.0 mg/kg/injection, schedule: Q01DX001 (ip), vehicle: Klucel (hydroxypropylcellulose) (HPC) 103 % of control | [4] 109 % of control | [5] 95 % of control | dose: 400.0 mg/kg/injection, schedule: Q01DX001 (ip), vehicle: Klucel (hydroxypropylcellulose) (HPC) 98 % of control | [6] 109 % of control | dose: 400.0 mg/kg/injection, schedule: Q04DX003 (ip), vehicle: Klucel (hydroxypropylcellulose) (HPC) 103 % of control

CC1(NCCOC(=O)c2ccc(N)cc2)CCCCC1
inactive: [10] 100 % of control | [11] 100 % of control

O=C(Cl)c1ccccc1/C=C/c1ccccc1
inactive: [12] 89 % of control | [13] 89 % of control | [14] 93 % of control

COc1ccc(NC(=S)NN)cc1
inactive: dose: 25.0 mg/kg/injection, schedule: Q01DX009 (ip), vehicle: saline with Tween-80 103 % of control | dose: 50.0 mg/kg/injection, schedule: Q01DX009 (ip), vehicle: saline with Tween-80 89 % of control | [12] 95 % of control

O=C(CC(O)(C(F)(F)F)C(F)(F)F)c1cccc(S(=O)(=O)F)c1
inactive: [15] 95 % of control | [16] 100 % of control

Cc1ccc(Cl)c(NC(=O)COc2ccc(Cl)cc2)c1
inactive: [2] 93 % of control | [4] 94 % of control | [6] 94 % of control

O=C(OCC1OCOC(COC(=O)c2ccccc2)C1O)c1ccccc1 (configuration not stated)
inactive: dose: 50.0 mg/kg/injection, schedule: Q04DX002 (ip), vehicle: saline with Tween-80 118 % of control | dose: 100.0 mg/kg/injection, schedule: Q04DX002 (ip), vehicle: saline with Tween-80 112 % of control | dose: 200.0 mg/kg/injection, schedule: Q04DX002 (ip), vehicle: saline with Tween-80 102 % of control

CCN(CC)CCNc1ncnc2[nH]ncc12
inactive: dose: 25.0 mg/kg/injection, schedule: Q04DX003 (ip), vehicle: saline 89 % of control | dose: 50.0 mg/kg/injection, schedule: Q04DX003 (ip), vehicle: saline 86 % of control | [1] 103 % of control and 89 % of control

C=C1CC2(C)C(=O)CCCC2OC1=O (configuration not stated)
inactive: dose: 25.0 mg/kg/injection, schedule: Q01DX001 (ip), vehicle: saline 91 % of control | dose: 50.0 mg/kg/injection, schedule: Q01DX001 (ip), vehicle: saline 100 % of control | dose: 100.0 mg/kg/injection, schedule: Q01DX001 (ip), vehicle: saline with Tween-80 102 % of control | dose: 100.0 mg/kg/injection, schedule: Q01DX001 (ip), vehicle: saline 106 % of control

CCCC1(CN2c3ccccc3Sc3ccc(Cl)cc32)CCN(CC)C1 (configuration not stated)
inactive: [1] 90 % of control

O=C(O)CNc1cc(S(=O)(=O)O)cc2cc(S(=O)(=O)O)c(N=Nc3cc(S(=O)(=O)O)cc4cc(S(=O)(=O)O)cc(O)c34)c(O)c12
inactive: [7] 101 % of control | [8] 104 % of control

Cc1ccc([P+](Cc2ccccc2)(c2ccc(C)cc2)c2ccc(C)cc2)cc1
inactive: [10] 97 % of control | [11] 97 % of control

O=C(C[n+]1ccc(/C=N\O)cc1)c1ccc(-c2ccc(C(=O)C[n+]3ccc(/C=N/O)cc3)cc2)cc1
inactive: dose: 100.0 mg/kg/injection, schedule: Q04DX002 (ip), vehicle: Klucel (hydroxypropylcellulose) (HPC) 103 % of control | dose: 200.0 mg/kg/injection, schedule: Q04DX002 (ip), vehicle: Klucel (hydroxypropylcellulose) (HPC) 100 % of control | dose: 400.0 mg/kg/injection, schedule: Q04DX002 (ip), vehicle: Klucel (hydroxypropylcellulose) (HPC) 92 % of control

CCOC(=O)CC(=O)c1cccc(S(=O)(=O)F)c1
inactive: [12] 98 % of control | [15] 104 % of control | [13] 103 % of control | [16] 98 % of control | [14] 92 % of control | dose: 400.0 mg/kg/injection, schedule: Q04DX003 (ip), vehicle: saline with Tween-80 102 % of control

CC(=O)Nc1c(Br)cc2c(c1Br)Cc1cc(N=Cc3ccc4c(c3)OCO4)ccc1-2
inactive: [7] 100 % of control | [8] 94 % of control | [9] 103 % of control
